Test results published in PMC5061469 (International Journal for Parasitology: Drugs and Drug …, 2016).
Several values for one entry are separate records, joined by “and”; a condition that tells them apart may be missing. Equal values may be shown once. Entries after “also recorded” stand apart in the source; their conditions may differ. Read-outs that look alike come from different tables or passages of the source.

How the values were obtained:
[1] = test system: multidrug resistant FCR-3 strain of P. falciparum; test: In vitro antiplasmodial activity; format: cell-based, Plasmodium falciparum
[2] = test system: Salmonella typhimurium TA1535/pSK1002; test: Genotoxicity assay, SOS/umu test; format: cell-based; conditions: for genotoxicity (SOS/umu test): with or without S9 fraction; for induction factor (IF): at non-cytotoxic concentrations with or without S9 fraction
Cytotoxicity assay = format: cell-based, African Green Monkey; conditions: African green monkey, VERO cells (kidney epithelial cells)
VERO cells = test: Cytotoxicity assay; format: cell-based, African Green Monkey; conditions: for SI (selectivity index): CC50 (cytotoxicity)/IC50 (FCR-3); for CC50: inhibition of 50% of VERO cells survival, 48 h, MTT
PM2 (plasmepsin II) = PM2 (plasmepsin II) (Plasmodium falciparum, UniProt P46925); test: Plasmepsin assay; format: biochemical, P. falciparum; conditions: tested at 5 μM
Chain of PM2 (plasmepsin II) (P46925 125-453): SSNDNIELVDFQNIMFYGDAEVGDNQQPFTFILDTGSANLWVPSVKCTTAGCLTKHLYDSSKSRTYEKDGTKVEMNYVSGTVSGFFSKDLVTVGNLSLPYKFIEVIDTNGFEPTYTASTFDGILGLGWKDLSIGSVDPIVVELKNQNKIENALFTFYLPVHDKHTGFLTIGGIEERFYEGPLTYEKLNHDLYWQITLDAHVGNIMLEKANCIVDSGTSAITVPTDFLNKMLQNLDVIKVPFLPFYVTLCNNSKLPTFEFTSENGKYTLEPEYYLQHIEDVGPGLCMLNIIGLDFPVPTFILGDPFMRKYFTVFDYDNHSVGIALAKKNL

[3] = test system: hemozoin formation pathway in D6 culture; test: Target validation in P. falciparum, heme speciation assay; format: cell-based, Plasmodium falciparum; conditions: increasing concentrations of compound
[4] = test system: chloroquine sensitive (D6) strain of P. falciparum; test: In vitro antiplasmodial activity; format: cell-based, Plasmodium falciparum
β-hematin formation = test: β-hematin inhibition assay; format: biochemical; conditions: screened between 0.44 and 110 μM; for IC50: read-out: β-hematin inhibition activity IC50
P. berghei ANKA = test: In vivo antimalarial activity, classical 4-day suppressive test; design: species or system Plasmodium berghei (Swiss male mice); conditions: oral 50 mg/kg/day x 4 days; for % Suppression of parasitemia: day 4
Heme binding studies = conditions: 40% DMSO, 0.02 M HEPES, pH 7.4
[5] = test system: multidrug resistant (C235) strain of P. falciparum; test: In vitro antiplasmodial activity; format: cell-based, Plasmodium falciparum
[6] = Plasmodium falciparum, FCR3, read-out: FCR-3 IC50, P. falciparum multidrug-resistant strain FCR-3
[7] = read-out: FCR-3 IC50, P. falciparum multidrug-resistant strain FCR-3
[8] = Plasmodium falciparum, D6, 72 h, read-out: Antimalarial activity IC50 D6, chloroquine sensitive strain D6, 72 h
[9] = read-out: Antimalarial activity IC50 D6, chloroquine sensitive strain D6, 72 h
[10] = Plasmodium falciparum, 72 h, read-out: Antimalarial activity IC50 C235, multidrug-resistant strain C235, 72 h

SMILES	IC50 [1, 6]	genotoxicity (SOS/umu test) [2]	CC50 at 48 h (Cytotoxicity assay)	SI (selectivity index) (VERO cells)	IC50 [1, 7]	inhibition of PM2 compared to the control (PM2 (plasmepsin II))	other results
Fc1ccc(C2=CCNCC2)cc1 [AM01, 4-(4-fluorophenyl)-1,2,3,6-tetrahydropyridine]	8.2 ± 2 µM	not considered genotoxic					
COc1cccc2c1C(=O)c1c(O)c3c(c(O)c1C2=O)C[C@@](O)(C(=O)CO)C[C@@H]3O[C@H]1C[C@H](N)[C@H](O)[C@H](C)O1 [Doxorubicin, reference compound]			6.4 µM				
O=[N+]([O-])c1cc(C(F)(F)F)ccc1N1CCN(CCC(O)c2csc3ccc(F)cc23)CC1 (stereo not shown) [Compound 15, 1-(5-fluorobenzo[b]thiophen-3-yl)-3-[4-(2-nitro-4-trifluoromethylphenyl)piperazin-1-yl] propan-1-ol]	2.23 ± 0.2 µM		> 150 µM	>50			
O=[N+]([O-])c1ccc(N2CCC(NCCC(O)c3csc4ccc(F)cc34)CC2)c(C(F)(F)F)c1 (stereo not shown) [Compound 18]					0.7 ± 0.1 µM	no significant inhibition	CC50 (VERO cells): 6.3 µM
OC(CCN1CC=C(c2ccc(F)cc2)CC1)c1ccc(C(F)(F)F)cc1 (stereo not shown) [Compound 20, 3-[4-(4-fluorophenyl)-3,6-dihydropyridin-1(2H)-y])-1-(4-(trifluoromethylphenyl)propan-1-ol]					5.6 ± 2.3 µM		CC50 (VERO cells): > 350 µM
OC(CCN1CCN(c2ccc(C(F)(F)F)cc2)CC1)c1ccc(F)c2ccccc12 (stereo not shown) [Compound 21]					0.93 ± 0.7 µM		CC50 (VERO cells): > 100 µM
OC(CCN1CC=C(c2ccc(F)cc2)CC1)c1ccc2ccccc2c1 (stereo not shown) [Compound 19, 3-[4-(4-fluorophenyl)-3,6-dihydropyridin-1(2H)-yl]-1-(naphthalen-2-yl)propan-1-ol]	14 ± 3.5 µM		24.6 µM	1.75			
O=[N+]([O-])c1ccc(NC2CCNCC2)c(C(F)(F)F)c1 [AM02, 4-(4-nitro-2-trifluoromethylphenyl)aminopiperidine]	4.3 ± 0.9 µM	not considered genotoxic					
O=[N+]([O-])c1ccc(N2CCC(NCCC(O)c3ccc(F)c4ccccc34)CC2)c(C(F)(F)F)c1 (stereo not shown) [Compound 22, 1-(4-Fluoronaphthalen-1-yl)-3-((1-(4-nitro-2-(trifluoromethyl)phenyl)piperidin-4-yl)amino) propan-1-ol]		absence of genotoxicity; also recorded: not considered genotoxic	5.5 µM	37		no significant inhibition	levels of free heme and hemozoin [3]: remained constant; IC50 [4, 8]: ≤ 0.19 µM; IC50 [4, 9]: 0.11 ± 0.01 µM; IC50 (β-hematin formation): 80.7 ± 1.7 µM; MSD (mean survival time) (P. berghei ANKA; P. berghei-infected mice): > 35 days; cure / survival of treated mice (P. berghei ANKA; P. berghei-infected mice): complete cure; % Suppression of parasitemia (P. berghei ANKA; P. berghei-infected mice, 50 mg/kg/day): 98 ± 1% and 98%; signs of toxicity in treated mice (P. berghei ANKA): no signs of toxicity; affinity for the μ-oxo dimer form of heme (binding curve) (Heme binding studies): affinity resembling that of chloroquine; induction factor (IF) [2]: lower than 2
CCN(CC)CCCC(C)Nc1ccnc2cc(Cl)ccc12 (stereo not shown) [CQ, chloroquine, reference compound]	0.13 µM		> 50 µM				IC50 [5, 10]: 0.048 ± 0.004 µM; IC50 [4, 8]: 0.014 ± 0.001 µM; IC50 (β-hematin formation): 48.7 ± 2.7 µM
O=[N+]([O-])c1ccc(N2CCN(CCC(O)c3ccc(F)cc3)CC2)c(C(F)(F)F)c1 (stereo not shown) [Compound 24, 1-(4-fluorophenyl)-3-[4-(4-nitro-2-trifluoromethylphenyl)piperazin-1-yl]propan-1-ol]		absence of genotoxicity; also recorded: not considered genotoxic	88 µM	244		no significant inhibition	MSD (mean survival time) (P. berghei ANKA; P. berghei-infected mice): 8 days; % Suppression of parasitemia (P. berghei ANKA; P. berghei-infected mice): 17 ± 8%; induction factor (IF) [2]: lower than 2
OC(CCN1CC=C(c2ccc(F)cc2)CC1)c1ccc(F)c2ccccc12 (stereo not shown) [Compound 23, 1-(4-Fluoronaphthalen-1-yl)-3-[4-(4-fluorophenyl)-3,6-dihydropyridin-1(2H)-yl] propan-1-ol]		absence of genotoxicity; also recorded: not considered genotoxic	49.5 µM	124		no significant inhibition	IC50 [5, 10]: ≤ 0.28 µM; IC50 ([5]; read-out: Antimalarial activity IC50 C235, multidrug-resistant strain C235, 72 h): 0.28 ± 0.05 µM; IC50 [4, 8]: ≤ 0.19 µM; IC50 [4, 9]: 0.19 ± 0.04 µM; β-hematin inhibition activity IC50 (β-hematin formation): Not active; MSD (mean survival time) (P. berghei ANKA; P. berghei-infected mice): 9 days; % Suppression of parasitemia (P. berghei ANKA; P. berghei-infected mice): 73 ± 16%; induction factor (IF) [2]: lower than 2
OC(CCN1CCN(c2ccc(C(F)(F)F)cc2)CC1)c1csc2ccc(F)cc12 (stereo not shown) [Compound 16, 1-(5-fluorobenzo[b]thiophen-3-yl)-3-(4-(4-trifluoromethylphenyl)piperazin-1-yl) propan-1-ol]	1.68 ± 0.6 µM		> 250 µM	>100		no significant inhibition	
O=[N+]([O-])c1ccc(N2CCCN(CCC(O)c3csc4ccc(F)cc34)CC2)c(C(F)(F)F)c1 (stereo not shown) [Compound 17, 1-(5-fluorobenzo[b]thiophen-3-yl)-3-[4-(4-nitro-2-trifluoromethylphenyl)-1,4-diazepan-1-yl]propan-1-ol]	< 1 µM		13.3 µM	18	0.75 ± 0.02 µM	no significant inhibition	
OC(CCN1CC=C(c2ccc(F)cc2)CC1)c1ccc(F)cc1 (stereo not shown) [Compound 26, 1-(4-fluorophenyl)-3-[4-(4-fluorophenyl)-3,6-dihydropyridin-1(2H)-yl]propan-1-ol]	< 1 µM		> 100 µM	>150	0.66 ± 0.01 µM		
O=[N+]([O-])c1ccc(N2CCN(CCC(O)c3csc4ccc(F)cc34)CC2)c(C(F)(F)F)c1 (stereo not shown) [Compound 14, 1-(5-fluorobenzo[b]thiophen-3-yl)-3-[4-(4-nitro-2-trifluoromethylphenyl)piperazin-1-yl] propan-1-ol]	1.32 ± 0.2 µM		> 200 µM	>150		no significant inhibition	
